Laboratory results published in patent US20200397700A1, “GRANULAR COMPOSITION, PRODUCTION METHOD FOR GRANULAR COMPOSITION, AND DISSOLUTION PROPERTY IMPROVEMENT METHOD FOR GRANULAR COMPOSITION” (NIPPON SHINYAKU CO., LTD., priority 2018, published 2020).
Structures can show the parent of a compound that is named as a salt.

Assay: Dissolution test, Japanese Pharmacopoeia 17th Edition, paddle method, water
Format: physicochemical
Conditions: for dissolution rate of the mixture with an excipient after compression molding versus the mixture not compression molded: drug mixed with an excipient, compression molded in the same manner as in this embodiment
Method: With respect to the granular compositions of Examples 1 to 8, and Comparative Examples 1 to 8 prepared as described above, a dissolution test was performed. The dissolution test was performed according to the dissolution test method of the Japanese Pharmacopoeia, Seventeenth Edition. By using a dissolution testing device (NTR-6000 series, manufactured by Toyama Sangyo Co., Ltd.), the dissolution test was performed by a paddle method using water as a dissolution test liquid. At this time, the volume of the dissolution test liquid was set to 900 mL, the temperature of the dissolution test liquid was set to 37 ±0.5° C., and the paddle rotation rate was set to 50 rpm. With respect to the respective Examples and the respective Comparative Examples, the total amount was added to the dissolution test liquid, and the dissolution test liquid was sampled at 5, 10, 15, 30, 45, 60, 90, and 120 minutes after the start of the test, and filtered through a 0.45-μm filter (manufactured by Whatman GE Healthcare Biosciences), and then, the dissolution rate of Compound (I) was measured using high performance liquid chromatography.
FIGS. 5 to 9 show the time course of the dissolution rate of Compound (I) in the granular compositions of Examples 1 to 5, respectively, and also show the time course of the dissolution rate of Compound (I) in Comparative Examples 1 to 5, respectively. […] In FIGS. 5 to 11, the vertical axis represents the dissolution rate (unit: %) and the horizontal axis represents a time (unit: min). The solid lines E1 to E8 represent the cases of Examples 1 to 8, respectively, and the broken lines C1 to C8 represent the cases of Comparative Examples 1 to 8, respectively.

| Structure (SMILES) | dissolution property of Compound (I) (in a granule obtained by a fluidized bed granulation method) | dissolution rate of the mixture with an excipient after compression molding versus the mixture not compression molded |
| --- | --- | --- |
| CC(C)N(CCCCOCC(=O)NS(C)(=O)=O)c1cnc(-c2ccccc2)c(-c2ccccc2)n1 [Compound (I), 2-{4-[N-(5,6-diphenylpyradin-2-yl)-N-isopropylamino]butyloxy}-N-(methylsulfonyl)acetamide] | low |  |
| CC(=O)Nc1ccc(O)cc1 [acetaminophen] |  | substantially equivalent |
| CCN(CC)C(=O)Nc1ccc(OCC(O)CNC(C)(C)C)c(C(C)=O)c1 (stereo not shown) [celiprolol hydrochloride] |  | substantially equivalent |
| COc1ccc2c(c1)c(CC(=O)O)c(C)n2C(=O)c1ccc(Cl)cc1 [indomethacin] |  | substantially equivalent |
